Results published in patent publication US11530197B2, “Analogs for the treatment of disease” (Insilico Medicine IP Limited, priority 2021, dated 2022).
Like-named read-outs stand apart in the source and are kept apart here.

Columns and labels:
[1] = biological target: MAP4K4 (h) (Homo sapiens (Human), UniProt O95819); assay: MAP4K4 Human STE Kinase Enzymatic Radiometric Assay; type: biochemical; details: ATP 200 μM; 40 min at room temperature;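 further: kinase activity remaining relative to the DMSO control, IC50 derived from sigmoidal variable-slope curve fits, no preincubation of compound with enzyme before ATP start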
Experimental: (§1) The reaction is initiated by the addition of the Mg/ATP mix. After incubation for 40 minutes at room temperature, the reaction is stopped by the addition of phosphoric acid to a concentration of 0.5%.
INCUBATION: 40 min at Room temperature
COMPOUND DILUTION SCHEME: All compounds supplied were prepared to a working stock of 50× final assay concentration in 100% DMSO. Where appropriate, more concentrated stocks were diluted manually to 50× using 100% DMSO. Compounds supplied as powders were reconstituted to a 10 mM stock in 100% DMSO before further dilution to 50×.
ASSAY PROCEDURE: The required volume of the 50× stock of test compound was added to the assay before a reaction mix containing the enzyme and substrate was added. The reaction was initiated by the addition of ATP at the selected concentration. There was no pre-incubation of the compound with the enzyme/substrate mix prior to ATP addition.
Results are expressed as kinase activity remaining, as a percentage of the DMSO control. This is calculated using the following formula: Mean of Sample Counts−Mean of Blank Counts/Mean of Control Counts
(§2) For IC50 determinations, data are analyzed using XLFit version 5.3 (ID Business Solutions). Sigmoidal dose-response (variable slope) curves are fit based on the mean result for each test concentration using non-linear regression analysis. Where the top and/or bottom of the curve fall >10% out with 100 and 0, respectively, either or both of these limits may be constrained at 100 and 0, provided that the QC criterion on R2 is met.

[2] = biological target: TNIK(h) (Homo sapiens (Human), UniProt Q9UKE5); assay: TNIK Human STE Kinase Enzymatic Radiometric Assay; type: biochemical;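 further: remaining kinase activity relative to DMSO control, compound added without preincubation, reaction started with ATP, IC50 from variable-slope sigmoidal dose-response fit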
Experimental: as §1
INCUBATION: 40 min at Room temperature
COMPOUND DILUTION SCHEME: All compounds supplied were prepared to a working stock of 50× final assay concentration in 100% DMSO. Where appropriate, more concentrated stocks were diluted manually to 50× using 100% DMSO. Compounds supplied as powders were reconstituted to a 10 mM stock in 100% DMSO before further dilution to 50×. ASSAY PROCEDURE: The required volume of the 50× stock of test compound was added to the assay before a reaction mix containing the enzyme and substrate was added. The reaction was initiated by the addition of ATP at the selected concentration. There was no pre-incubation of the compound with the enzyme/substrate mix prior to ATP addition. […] Results are expressed as kinase activity remaining, as a percentage of the DMSO control. This is calculated using the following formula:
as §2

[3] = Metabolic stability in human liver microsomes; type: in vitro ADME; details: LM Clint; 1 μM test compound, 0.5 mg protein/mL microsome, 37° C., up to 60 min;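 further: NADPH-supplemented human liver microsomes sampled at 0, 5, 10, 20, 30 and 60 min, parent compound quantified by LC-MS/MS, intrinsic clearance from first-order decay, no-cofactor incubation as control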
Experimental: Test Compound an Control Working Solution Preparation: Working solution: 5 μL of compound and control stock solution (10 mM in dimethyl sulfoxide (DMSO)) were diluted with 495 µL of acetonitrile (ACN) (intermediate solution concentration: 100 μM, 99% ACN).
Preparation Procedure: The appropriate amount of NADPH powder was weighed and diluted into a 10 mM MgCl2 solution (working solution concentration: 10 unit/mL; final concentration in reaction system: 1 unit/mL).
Preparation Procedure: The appropriate concentrations of microsome working solutions were prepared in 100 mM potassium phosphate buffer.
Stop Solution Preparation: Cold (4° C.) acetonitrile (ACN) containing 200 ng/mL tolbutamide and 200 ng/mL labetalol as internal standards (IS) was used as the stop solution.
Dilute liver microsomes to 0.56 mg/mL in 100 mM phosphate buffer.
Transfer 445 μL microsome working solutions (0.56 mg/mL) into pre-warmed ‘Incubation’ plates T60 and NCF60, Then pre-incubate ‘Incubation’ plates T60 and NCF60 for 10 min at 37° C. with constant shaking. Transfer 54 μL liver microsomes to blank plate, then add 6 μL NAPDH cofactor to blank plate, and then add 180 μL quenching solution to blank plate.
2.5.4 Add 5 μL compound working solution (100 μM) into ‘incubation’ plates (T60 and NCF60) containing microsomes and mix 3 times thoroughly.
For the NCF60 plate, add 50 μL of buffer and mix 3 times thoroughly. Start timing; plate will be incubated at 37° C. for 60 min while shaking.
For the T60 plate, mix 3 times thoroughly, and immediately remove 54 μL mixture for the 0-min time point to ‘Quenching’ plate. Then add 44 μL NAPDH cofactor to incubation plate (T60). Start timing; plate will be incubated at 37° C. for 60 min while shaking.
At 5, 10, 20, 30, and 60 min, add 180 μL quenching solution to ‘Quenching’ plates, mix once, and serially transfer 60 μL sample from T60 plate per time point to ‘Quenching’ plates.
For NCF60: mix once, and transfer 60 μL sample from the NCF60 incubation to ‘Quenching’ plate containing quenching solution at the 60-min time point.
All sampling plates are shaken for 10 min, then centrifuged at 4000 rpm for 20 minutes at 4° C.
Transfer 80 μL supernatant into 240 μL HPLC water, and mix by plate shaker for 10 min.
Each bioanalysis plate was sealed and shaken for 10 minutes prior to LC-MS/MS analysis.
The equation of first order kinetics was used to calculate T½ and Intrinsic clearance (CLint mic) in (L/min/mg).

[4] = tested on: Collagen I (COL1A1) in LX-2 cells; assay: Collagen and Alpha-SMA in LX-2 (Western blot after TGF-β stimulation); type: cell-based; details: Homo sapiens, 4 ng/ml TGF-β for 48 hours, Collagen I normalized to GAPDH;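 further: cells serum-starved in 0.4% FBS before treatment, lysates analysed by Western blot, DMSO-only wells as blank and TGF-β alone as maximal induction control, three independent experiments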
Experimental: 3 ml of 0.25% Trypsin-EDTA solution was then added and cells were incubated at 37° C. for 5 min for each T150-flask. 7 ml of culture medium was added to stop trypsinization. The cells were centrifuged at 300×g for 5 min. Supernatant medium was discarded and cells were re-suspended with fresh culture medium. The cells were counted with Cell viability analyzer. 5.0E+05 cells/well were seeded into 6-well plate containing 2.0 mL of culture medium. The cells were cultured overnight at 37° C. The next day, the complete medium was replaced with medium with 0.4% FBS for starvation. […] In parallel, medium containing only DMSO and TGF-β was used as blank control and positive control, respectively. TGF-β induction was used as maximum induction positive control. The culture medium was discarded at the end of induction. Cells were washed once using ice-cold DPBS. RIPA buffer was added to lyse the cells for 20 min. The cells were then scraped off the culture plate, collected in a tube and centrifuged. The supernatant was stored at −80° C. The total amount of protein in the lysate was determined using BCA Protein Assay kit. The cell treatment of fibrosis assay was performed in three independent experiments for each compound.
All the lysate samples were adjusted to the same protein concentration with RIPA buffer after BCA assay. […] The denatured samples were used for electrophoresis. Western blot was performed according to the standard protocols. The same volume of protein was loaded onto 4-12% Bis-Tris gel. Duplicate lysates of samples were loaded onto two gels. The gels were run for 0.5 h at 80 V and 120 V for another 1 h. When the electrophoresis was completed, the gels containing target protein Collagen I (COL1A1) were transferred onto NC membrane using Trans-Blot Electrophoretic Transfer Cell for 90 min at 100 V. The iBlot™ 2 Gel Transfer Device was used to transfer α-SMA and GAPDH at 20 V for 7 min. All the membranes were blocked in TBST buffer with 5% nonfat dry milk in at RT for 1 h and then incubated with primary antibody anti-COL1A1 and anti-α-SMA in TBST buffer containing 5% BSA at 4° C. overnight. For GAPDH detection, the membrane with α-SMA immunoblots were stripped with Restore™ Western Blot Stripping Buffer after detection. And the membranes were re-blocked and then re-probed with primary antibody anti-GAPDH antibody at room temperature (RT) for 2 h. After incubation with primary antibodies, membranes were washed with TBST, then incubated with the secondary antibody at RT for 1 h. Blots were visualized using the instrument Image Quant LAS-4000. The chemiluminescent signals derived from ECL Western blotting reagents were captured. The bands integrated intensity from 16-bit blot images was used for quantitation with the software (1D component of ImageQuant TL). The quantification raw data of the two duplicated gels was obtained from ImageQuant TL. Collagen I and α-SMA proteins expression level was normalized to GAPDH for each gel. The average normalization data of the two duplicated gels was calculated and applied to calculate IC50 using an equation for a sigmoidal dose response (variable slope) of GraphPad™ Prism software. The equation is Y=Bottom+(Top-Bottom)/(1+10^((Log IC50−X)*Hillslope). Note: X is the logarithm of compound concentration, Y is the average normalization data

[5] = ATP 70 μM, 40 min at room temperature, read-out: TNIK (IC50)

Chain of MAP4K4 (h) (O95819 whole entry): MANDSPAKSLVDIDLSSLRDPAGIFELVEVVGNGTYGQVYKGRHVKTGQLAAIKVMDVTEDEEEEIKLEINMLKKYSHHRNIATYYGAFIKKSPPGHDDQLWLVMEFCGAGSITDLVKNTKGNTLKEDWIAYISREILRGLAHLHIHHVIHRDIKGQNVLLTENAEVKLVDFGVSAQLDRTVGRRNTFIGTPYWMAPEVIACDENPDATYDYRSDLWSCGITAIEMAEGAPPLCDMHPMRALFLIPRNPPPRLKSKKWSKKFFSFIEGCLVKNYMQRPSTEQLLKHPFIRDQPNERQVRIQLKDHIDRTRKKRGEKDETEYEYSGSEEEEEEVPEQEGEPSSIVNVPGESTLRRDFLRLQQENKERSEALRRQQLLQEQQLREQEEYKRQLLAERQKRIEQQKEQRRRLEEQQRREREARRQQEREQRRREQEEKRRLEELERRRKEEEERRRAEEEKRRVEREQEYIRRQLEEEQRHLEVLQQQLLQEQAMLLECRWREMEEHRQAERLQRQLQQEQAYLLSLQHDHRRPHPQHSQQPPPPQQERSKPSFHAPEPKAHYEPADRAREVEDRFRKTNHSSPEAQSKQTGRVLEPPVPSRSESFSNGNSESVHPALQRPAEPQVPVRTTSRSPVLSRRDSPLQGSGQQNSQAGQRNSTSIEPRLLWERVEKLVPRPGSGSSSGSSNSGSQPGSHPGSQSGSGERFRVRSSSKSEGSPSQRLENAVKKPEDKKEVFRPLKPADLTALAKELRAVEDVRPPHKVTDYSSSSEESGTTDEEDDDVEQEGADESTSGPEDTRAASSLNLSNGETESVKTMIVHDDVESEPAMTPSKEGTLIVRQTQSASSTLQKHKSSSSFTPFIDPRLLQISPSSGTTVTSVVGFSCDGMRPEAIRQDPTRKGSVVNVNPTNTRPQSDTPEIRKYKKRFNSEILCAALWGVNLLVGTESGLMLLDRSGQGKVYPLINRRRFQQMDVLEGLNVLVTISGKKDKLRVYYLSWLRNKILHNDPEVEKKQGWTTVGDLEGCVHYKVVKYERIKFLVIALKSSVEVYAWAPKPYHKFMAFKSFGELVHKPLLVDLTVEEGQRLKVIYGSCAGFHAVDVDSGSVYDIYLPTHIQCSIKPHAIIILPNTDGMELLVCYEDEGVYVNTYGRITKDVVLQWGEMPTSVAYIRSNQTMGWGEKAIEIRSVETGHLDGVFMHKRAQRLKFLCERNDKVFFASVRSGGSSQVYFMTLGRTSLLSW
Chain of TNIK(h) (Q9UKE5 whole entry): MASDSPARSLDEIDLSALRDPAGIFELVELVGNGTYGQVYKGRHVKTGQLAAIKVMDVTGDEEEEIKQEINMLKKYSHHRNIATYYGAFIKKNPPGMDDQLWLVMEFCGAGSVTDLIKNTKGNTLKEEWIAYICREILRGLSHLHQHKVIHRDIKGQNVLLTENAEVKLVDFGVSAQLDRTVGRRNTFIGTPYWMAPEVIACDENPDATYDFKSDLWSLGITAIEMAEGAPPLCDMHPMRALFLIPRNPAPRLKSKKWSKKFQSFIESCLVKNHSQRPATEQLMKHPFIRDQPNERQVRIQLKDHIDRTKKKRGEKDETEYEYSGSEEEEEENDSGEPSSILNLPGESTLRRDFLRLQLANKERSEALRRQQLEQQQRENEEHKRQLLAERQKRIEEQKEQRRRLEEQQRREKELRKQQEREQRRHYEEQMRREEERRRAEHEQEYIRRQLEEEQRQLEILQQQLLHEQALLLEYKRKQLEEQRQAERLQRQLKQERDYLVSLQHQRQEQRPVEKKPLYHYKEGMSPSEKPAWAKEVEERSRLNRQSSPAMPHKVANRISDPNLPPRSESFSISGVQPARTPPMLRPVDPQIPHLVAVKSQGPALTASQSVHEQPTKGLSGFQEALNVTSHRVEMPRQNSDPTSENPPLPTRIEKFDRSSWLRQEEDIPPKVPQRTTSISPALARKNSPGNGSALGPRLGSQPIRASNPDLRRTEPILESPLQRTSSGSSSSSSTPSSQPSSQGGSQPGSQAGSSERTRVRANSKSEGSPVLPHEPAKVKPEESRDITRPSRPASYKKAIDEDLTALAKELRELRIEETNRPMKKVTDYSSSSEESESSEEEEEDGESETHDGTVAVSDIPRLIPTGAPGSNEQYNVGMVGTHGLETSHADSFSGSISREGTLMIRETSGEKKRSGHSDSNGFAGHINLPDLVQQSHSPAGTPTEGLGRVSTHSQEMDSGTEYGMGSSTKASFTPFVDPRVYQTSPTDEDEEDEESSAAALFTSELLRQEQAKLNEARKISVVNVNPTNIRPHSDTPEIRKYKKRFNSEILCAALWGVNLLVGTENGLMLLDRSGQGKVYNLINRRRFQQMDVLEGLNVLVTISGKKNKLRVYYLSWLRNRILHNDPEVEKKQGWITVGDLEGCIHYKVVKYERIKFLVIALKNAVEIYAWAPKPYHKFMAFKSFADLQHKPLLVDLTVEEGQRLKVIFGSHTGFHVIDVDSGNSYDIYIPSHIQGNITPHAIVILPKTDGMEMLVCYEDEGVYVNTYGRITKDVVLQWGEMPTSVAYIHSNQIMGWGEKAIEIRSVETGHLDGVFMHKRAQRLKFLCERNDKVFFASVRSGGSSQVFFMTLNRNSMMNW

CC(C)n1cnc(-c2ccc(Cl)cc2)c1-c1nc(C(=O)Nc2ccc(N3CCN(CCO)CC3)cc2)c[nH]1 [Compound 139, 5′-(4-chlorophenyl)-N-(4-(4-(2-hydroxyethyl)piperazin-1-yl)phenyl)-3′-isopropyl-1H,3′H-[2,4′-biimidazole]-4-carboxamide]
IC50 [1]: > 120 nM
IC50 [2, 5]: 12 to 120 nM
Human Liver Microsome (μM/min/mg) [3]: ++ (10-100 μM/min/mg as ++)
IC50 [4]: 0.1 to 1 nM

CC(C)n1cnc(-c2ccc(F)cc2)c1-c1nc(C(=O)Nc2ccc(N3CCN(CCO)CC3)cc2)c[nH]1 [Compound 117, 5′-(4-fluorophenyl)-N-(4-(4-(2-hydroxyethyl)piperazin-1-yl)phenyl)-3′-isopropyl-1H,3′H-[2,4′-biimidazole]-4-carboxamide]
IC50 [1]: 12 to 120 nM
IC50 [2, 5]: 12 to 120 nM
Human Liver Microsome (μM/min/mg) [3]: ++ (10-100 μM/min/mg as ++)
IC50 [4]: 0.1 to 1 nM

CC(C)n1cnc(-c2ccc(F)c(F)c2)c1-c1nc(C(=O)Nc2ccc(N3CCN(C)CC3)cc2)c[nH]1 [Compound 156, 5′-(3,4-difluorophenyl)-3′-isopropyl-N-(4-(4-methylpiperazin-1-yl)phenyl)-1H,3′H-[2,4′-biimidazole]-4-carboxamide]
IC50 [1]: > 120 nM
IC50 [2]: 12 to 120 nM
Human Liver Microsome (μM/min/mg) [3]: ++ (10-100 μM/min/mg as ++)
IC50 [4]: < 0.1 nM

CN1CCN(c2ccc(NC(=O)c3c[nH]c(-c4c(-c5ccc(F)cc5)ncn4CC(F)(F)F)n3)cc2)CC1 [Compound 120, 5′-(4-fluorophenyl)-N-(4-(4-methylpiperazin-1-yl)phenyl)-3′-(2,2,2-trifluoroethyl)-1H,3′H-[2,4′-biimidazole]-4-carboxamide]
IC50 [1]: > 120 nM
IC50 [2, 5]: 12 to 120 nM
Human Liver Microsome (μM/min/mg) [3]: ++ (10-100 μM/min/mg as ++)
IC50 [4]: < 0.1 nM

CC(C)n1cnc(-c2ccc(F)cc2)c1-c1cccc(C(=O)Nc2ccc(CCC(=O)O)cc2)n1 [Compound 131]
IC50 [1]: 12 to 120 nM
IC50 [2, 5]: 1 to 12 nM
Human Liver Microsome (μM/min/mg) [3]: +++ (1-10 μM/min/mg as +++)
IC50 [4]: 0.1 to 1 nM

CC(C)n1cnc(-c2ccc(F)cc2)c1-c1nc(C(=O)Nc2ccc(N(CCO)CCO)cc2)c[nH]1 [Compound 116, N-(4-(bis(2-hydroxyethyl)amino)phenyl)-5′-(4-fluorophenyl)-3′-isopropyl-1H,3′H-[2,4′-biimidazole]-4-carboxamide]
IC50 [1]: 12 to 120 nM
IC50 [2, 5]: 12 to 120 nM
Human Liver Microsome (μM/min/mg) [3]: +++ (1-10 μM/min/mg as +++)
IC50 [4]: 0.1 to 1 nM

CN1CCN(c2ccc(NC(=O)c3c[nH]c(-c4c(-c5ccc(F)cc5)ncn4C(F)F)n3)cc2)CC1 [Compound 130, 3′-(difluoromethyl)-5′-(4-fluorophenyl)-N-(4-(4-methylpiperazin-1-yl)phenyl)-1H,3′H-[2,4′-biimidazole]-4-carboxamide]
IC50 [1]: > 120 nM
IC50 [2, 5]: 12 to 120 nM
Human Liver Microsome (μM/min/mg) [3]: ++ (10-100 μM/min/mg as ++)
IC50 [4]: 0.1 to 1 nM

CC(C)n1cnc(-c2ccc(F)c(F)c2)c1-c1nc(C(=O)Nc2ccc(N3CCN(CCO)CC3)cc2)c[nH]1 [Compound 146, 5′-(3,4-difluorophenyl)-N-(4-(4-(2-hydroxyethyl)piperazin-1-yl)phenyl)-3′-isopropyl-1H,3′H-[2,4′-biimidazole]-4-carboxamide]
IC50 [1]: > 120 nM
IC50 [2, 5]: 12 to 120 nM
Human Liver Microsome (μM/min/mg) [3]: ++ (10-100 μM/min/mg as ++)
IC50 [4]: 0.1 to 1 nM

CC(C)n1cnc(-c2ccc(F)cc2)c1-c1cccc(C(=O)Nc2ccc(N3CCN(CCO)CC3)cc2)n1 [Compound 128]
IC50 [1]: 1 to 12 nM
IC50 [2, 5]: 1 to 12 nM
Human Liver Microsome (μM/min/mg) [3]: + (>100 μM/min/mg as +)
IC50 [4]: 0.1 to 1 nM

CN1CCN(c2ccc(NC(=O)c3c[nH]c(-c4c(-c5ccc(F)cc5)ncn4[C@H]4CC[C@H](O)CC4)n3)cc2)CC1 [Compound 159, 5′-(4-fluorophenyl)-3′-((1r,4r)-4-hydroxycyclohexyl)-N-(4-(4-methylpiperazin-1-yl)phenyl)-1H,3′H-[2,4′-biimidazole]-4-carboxamide]
IC50 [1]: 12 to 120 nM
IC50 [2, 5]: 1 to 12 nM
Human Liver Microsome (μM/min/mg) [3]: ++ (10-100 μM/min/mg as ++)
IC50 [4]: 0.1 to 1 nM

O=C(Nc1ccc(N2CCNCC2)cc1)c1c[nH]c(-c2c(-c3ccc(F)cc3)ncn2CC(F)(F)F)n1 [Compound 167, 5′-(4-fluorophenyl)-N-(4-(piperazin-1-yl)phenyl)-3′-(2,2,2-trifluoroethyl)-1H,3′H-[2,4′-biimidazole]-4-carboxamide]
IC50 [1]: > 120 nM
IC50 [2, 5]: 12 to 120 nM
Human Liver Microsome (μM/min/mg) [3]: ++ (10-100 μM/min/mg as ++)
IC50 [4]: < 0.1 nM

CC(C)n1cnc(-c2ccc(F)cc2)c1-c1nc(C(=O)Nc2ccc(CCO)cc2)c[nH]1 [Compound 111, 5′-(4-fluorophenyl)-N-(4-(2-hydroxyethyl)phenyl)-3′-isopropyl-1H,3′H-[2,4′-biimidazole]-4-carboxamide]
IC50 [1]: > 120 nM
IC50 [2, 5]: 12 to 120 nM
Human Liver Microsome (μM/min/mg) [3]: ++ (10-100 μM/min/mg as ++)
IC50 [4]: 0.1 to 1 nM
